pIC50: −log10 of the molar value. Active and inactive are the calls of the source. The calls are words filed in the database; no cut-off is given here.
Key:
Mus musculus = assay: In vivo induction of ER-alpha degradation in Balb/c mouse xenografted with human MCF7 cells assessed as decrease in ER-alpha expression in tumor at 5 to 10 mg/kg, iv administered every 3 days and measured on day 21 by immunofluorescence analysis; format: functional, organism-based; conditions: dose 5-10 mg/kg, time 21.0 day
MCF7 [1] = assay: Antitumor activity against human MCF7 cells xenografted in Balb/c mouse assessed as reduction in tumor weight at 5 to 10 mg/kg, iv administered every 3 days and measured on day 21; format: functional, organism-based; conditions: dose 5-10 mg/kg, time 21.0 day
[2] = Toxicity in Balb/c mouse xenografted with human MCF7 cells assessed as effect on lungs morphological changes at 5 to 10 mg/kg, iv measured after 24 hrs by Hematoxylin-Eosin staining based analysis; format: organism-based; conditions: in vivo, dose 5-10 mg/kg
[3] = biological target: T1, Estrogen receptor (Homo sapiens) (UniProt P03372); assay: HyT degrader activity at ER-alpha in human MCF7 cells assessed as induction of ER-alpha degradation by measuring decrease in ER-alpha level at 10 uM pretreated with NAE inhibitor, MLN4924 for 2 hrs followed by incubation with compound for 12 hrs by immunoblot analysis; format: cell-based
T1 sequence (whole entry): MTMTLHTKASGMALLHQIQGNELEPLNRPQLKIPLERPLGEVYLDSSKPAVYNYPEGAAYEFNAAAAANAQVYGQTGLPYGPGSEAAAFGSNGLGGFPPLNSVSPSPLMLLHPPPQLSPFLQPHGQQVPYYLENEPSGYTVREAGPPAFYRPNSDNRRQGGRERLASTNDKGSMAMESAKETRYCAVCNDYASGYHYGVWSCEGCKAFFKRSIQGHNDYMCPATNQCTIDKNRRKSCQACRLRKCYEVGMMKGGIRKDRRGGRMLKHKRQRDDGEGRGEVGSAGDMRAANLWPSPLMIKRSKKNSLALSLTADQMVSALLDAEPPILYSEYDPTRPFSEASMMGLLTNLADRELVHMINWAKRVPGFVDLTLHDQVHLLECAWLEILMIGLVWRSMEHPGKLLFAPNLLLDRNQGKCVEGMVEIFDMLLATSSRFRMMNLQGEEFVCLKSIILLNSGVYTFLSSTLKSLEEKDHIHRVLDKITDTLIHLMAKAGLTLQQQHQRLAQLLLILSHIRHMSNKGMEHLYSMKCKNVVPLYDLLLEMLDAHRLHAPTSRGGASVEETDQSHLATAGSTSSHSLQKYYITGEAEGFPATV

[4] = Toxicity in Balb/c mouse xenografted with human MCF7 cells assessed as effect on hematocrit level at 5 to 10 mg/kg, iv measured after 24 hrs; format: organism-based; conditions: in vivo, dose 5-10 mg/kg
MCF7 [5] = assay: Antiproliferative activity against human MCF7 cells assessed as reduction in cell viability incubated for 48 hrs by MTT assay relative to control; format: functional
MCF7 [6] = assay: Antiproliferative activity against human MCF7 cells overexpressing ER-alpha Y537S mutant assessed as reduction in cell viability incubated for 48 hrs by MTT assay relative to control; format: functional
[7] = Nephrotoxicity in Balb/c mouse xenografted with human MCF7 cells assessed as effect on blood urea nitrogen level in serum at 5 to 10 mg/kg, iv measured after 24 hrs; format: toxicity, organism-based; conditions: in vivo, dose 5-10 mg/kg
[8] = biological target: T1, Estrogen receptor (Homo sapiens); assay: HyT degrader activity at ER-alpha in human MCF7 cells assessed as induction of ER-alpha degradation by measuring decrease in ER-alpha level at 10 uM incubated for 72 hrs by western blot analysis; format: cell-based
[9] = biological target: Estrogen receptor beta (Homo sapiens) (UniProt Q92731); assay: Binding affinity to ER-beta in human MCF7 cells at 100 uM incubated for 1 hr followed by exposure to heat at 25 to 66 degC for 3 mins and incubation for 3 mins at room temperature by thermal shift binding assay; format: cell-based; conditions: time 66.0 min
[10] = biological target: T1, Estrogen receptor (Homo sapiens); assay: HyT degrader activity at ER-alpha in human MCF7 cells assessed as induction of ER-alpha degradation by measuring residual ER-alpha level at 10 uM pretreated with HSP70 inhibitor, VER-155008 and HSP90 inhibitor, 17-AAG for 2 hrs followed by incubation with compound for 12 hrs by immunoblot analysis; format: cell-based
MCF7 [11] = assay: Antitumor activity against human MCF7 cells xenografted in Balb/c mouse assessed as tumor volume at 10 mg/kg, iv administered every 3 days and measured for 21 days (reference value: 165.5 mm3); format: functional; conditions: time 21 day
[12] = Nephrotoxicity in Balb/c mouse xenografted with human MCF7 cells assessed as effect on creatinine level in serum at 5 to 10 mg/kg, iv measured after 24 hrs; format: toxicity, organism-based; conditions: in vivo, dose 5-10 mg/kg
[13] = biological target: T1, Estrogen receptor (Homo sapiens); assay: HyT degrader activity at ER-alpha in human MCF7 cells assessed as induction of ER-alpha degradation by measuring decrease in ER-alpha level at 10 uM incubated for 48 hrs by western blot analysis; format: cell-based; parameters: scale not given: the % may be the effect or the level left
[14] = Toxicity in Balb/c mouse xenografted with human MCF7 cells assessed as effect on red blood cells count at 5 to 10 mg/kg, iv measured after 24 hrs; format: organism-based; conditions: in vivo, dose 5-10 mg/kg
[15] = Toxicity in Balb/c mouse xenografted with human MCF7 cells assessed as effect on spleen morphological changes at 5 to 10 mg/kg, iv measured after 24 hrs by Hematoxylin-Eosin staining based analysis; format: organism-based; conditions: in vivo, dose 5-10 mg/kg
MCF7 [16] = assay: Antiproliferative activity against human MCF7 cells assessed as reduction in cell viability incubated for 48 hrs by MTT assay; format: functional, cell-based; conditions: MCF7, 48 h
[17] = biological target: Estrogen receptor beta (Homo sapiens) (UniProt Q92731); assay: HyT degrader activity at ER-beta in human MCF7 cells assessed as induction of ER-beta degradation by measuring decrease in ER-beta level at 1 to 10 uM incubated for 24 hrs by immunoblot analysis; format: cell-based; conditions: dose 1-10 µM
[18] = Hepatotoxicity in Balb/c mouse xenografted with human MCF7 cells assessed as effect on ALT level in serum at 5 to 10 mg/kg, iv measured after 24 hrs; format: toxicity, organism-based; conditions: in vivo, dose 5-10 mg/kg
MCF7 [19] = assay: Antitumor activity against human MCF7 cells xenografted in Balb/c mouse assessed as inhibition of tumor growth at 10 mg/kg, iv administered every 3 days and measured for 21 days; format: functional; conditions: MCF7, 504 h, time 21 day, read-out: TGI
[20] = Toxicity in Balb/c mouse xenografted with human MCF7 cells assessed as effect on platelets count at 5 to 10 mg/kg, iv measured after 24 hrs; format: organism-based; conditions: in vivo, dose 5-10 mg/kg
MCF7 [21] = assay: Antitumor activity against human MCF7 cells xenografted in Balb/c mouse assessed as tumor tissue damage at 10 mg/kg, iv administered every 3 days and measured on day 21 by Hematoxylin-Eosin staining based analysis; format: functional, organism-based; conditions: time 21.0 day
[22] = Hepatotoxicity in Balb/c mouse xenografted with human MCF7 cells assessed as effect on AST level in serum at 5 to 10 mg/kg, iv measured after 24 hrs; format: toxicity, organism-based; conditions: in vivo, dose 5-10 mg/kg
[23] = biological target: T1, Estrogen receptor (Homo sapiens); assay: HyT degrader activity at ER-alpha in human MCF7 cells assessed as induction of ER-alpha degradation incubated for 24 hrs by western blot analysis; format: cell-based; conditions: dose 0.01-100 µM
[24] = biological target: T1, Estrogen receptor (Homo sapiens); assay: HyT degrader activity at ER-alpha in human MCF7 cells assessed as induction of ER-alpha degradation by measuring residual ER-alpha level at 10 uM pretreated with HSP70 inhibitor, VER-155008 for 2 hrs followed by incubation with compound for 12 hrs by immunoblot analysis; format: cell-based

Sequence of Estrogen receptor beta (Homo sapiens) (Q92731 whole entry): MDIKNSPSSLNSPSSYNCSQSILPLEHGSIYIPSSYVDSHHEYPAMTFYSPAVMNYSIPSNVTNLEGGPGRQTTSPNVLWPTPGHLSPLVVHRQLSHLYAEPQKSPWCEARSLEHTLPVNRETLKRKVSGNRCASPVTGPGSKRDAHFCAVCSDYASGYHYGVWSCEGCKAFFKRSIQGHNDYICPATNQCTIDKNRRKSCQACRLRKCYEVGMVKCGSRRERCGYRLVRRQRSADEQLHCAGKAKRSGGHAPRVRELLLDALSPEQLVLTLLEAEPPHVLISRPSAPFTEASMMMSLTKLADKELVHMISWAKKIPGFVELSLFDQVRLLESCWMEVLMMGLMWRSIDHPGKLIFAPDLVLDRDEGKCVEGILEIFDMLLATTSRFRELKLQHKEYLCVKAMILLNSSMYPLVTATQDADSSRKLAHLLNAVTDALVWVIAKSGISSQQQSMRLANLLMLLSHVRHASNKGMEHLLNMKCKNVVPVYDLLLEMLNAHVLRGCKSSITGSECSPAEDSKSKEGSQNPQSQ

With C[C@@H]1CCC2[C@]34OO[C@](C)(CCC13)O[C@@H]4O[C@]2(C)C(=O)NCCCOc1ccc(C(=O)c2c(-c3ccc(O)cc3)sc3cc(O)ccc23)cc1 (stereo not given in full) the Activity (Mus musculus) was “Active”, the Activity (MCF7 [1]) was “Active” and the Activity [2] was “Non-toxic”. For the same compound, the Activity [3] was “inactive”, the Activity [4] was “Non-toxic” and the “inhibition (INH)” value (MCF7 [5]) was 73.5%. For the same compound, the “inhibition (INH)” value (MCF7 [6]) was 63.6%, the Activity [7] was “Non-toxic” and the Activity [8] was “Active”. For the same compound, the Activity [9] was “Active; Weak Affinity”, the Activity [10] was 91% and the Activity (MCF7 [11]) was 65.1 mm3. The Activity [12] was “Non-toxic”, the Activity [13] was greater than 99% and the Activity [14] was “Non-toxic”. For the same compound, the Activity [15] was “Non-toxic”, the pIC50 (MCF7 [16]) was 5.64 and the Activity [17] was “Active”. The Activity [18] was “Non-toxic”, the inhibition in vivo at 10 mg/kg (MCF7 [19]) was 112% and the Activity [20] was “Non-toxic”. For the same compound, the Activity (MCF7 [21]) was “Active”, the Activity [22] was “Non-toxic” and the Activity [23] was “Dose-dependent-effect”. It also gave an Activity [24] of 71.9%.

— ChEMBL document CHEMBL6096682, “Discovery of D-Ring-Contracted Artemisinin as a Potent Hydrophobic Tag for Targeted Protein Degradation” (J Med Chem, 2025)
